For one assay, the target named is T1, TNKS2 (Homo sapiens, UniProt Q9H2K2).
T1 construct: purchased BPS Bioscience, San Diego, USA 80572 (TNKS2 Histone Ribosylation Assay Kit)
T1 sequence (Q9H2K2 1-1166): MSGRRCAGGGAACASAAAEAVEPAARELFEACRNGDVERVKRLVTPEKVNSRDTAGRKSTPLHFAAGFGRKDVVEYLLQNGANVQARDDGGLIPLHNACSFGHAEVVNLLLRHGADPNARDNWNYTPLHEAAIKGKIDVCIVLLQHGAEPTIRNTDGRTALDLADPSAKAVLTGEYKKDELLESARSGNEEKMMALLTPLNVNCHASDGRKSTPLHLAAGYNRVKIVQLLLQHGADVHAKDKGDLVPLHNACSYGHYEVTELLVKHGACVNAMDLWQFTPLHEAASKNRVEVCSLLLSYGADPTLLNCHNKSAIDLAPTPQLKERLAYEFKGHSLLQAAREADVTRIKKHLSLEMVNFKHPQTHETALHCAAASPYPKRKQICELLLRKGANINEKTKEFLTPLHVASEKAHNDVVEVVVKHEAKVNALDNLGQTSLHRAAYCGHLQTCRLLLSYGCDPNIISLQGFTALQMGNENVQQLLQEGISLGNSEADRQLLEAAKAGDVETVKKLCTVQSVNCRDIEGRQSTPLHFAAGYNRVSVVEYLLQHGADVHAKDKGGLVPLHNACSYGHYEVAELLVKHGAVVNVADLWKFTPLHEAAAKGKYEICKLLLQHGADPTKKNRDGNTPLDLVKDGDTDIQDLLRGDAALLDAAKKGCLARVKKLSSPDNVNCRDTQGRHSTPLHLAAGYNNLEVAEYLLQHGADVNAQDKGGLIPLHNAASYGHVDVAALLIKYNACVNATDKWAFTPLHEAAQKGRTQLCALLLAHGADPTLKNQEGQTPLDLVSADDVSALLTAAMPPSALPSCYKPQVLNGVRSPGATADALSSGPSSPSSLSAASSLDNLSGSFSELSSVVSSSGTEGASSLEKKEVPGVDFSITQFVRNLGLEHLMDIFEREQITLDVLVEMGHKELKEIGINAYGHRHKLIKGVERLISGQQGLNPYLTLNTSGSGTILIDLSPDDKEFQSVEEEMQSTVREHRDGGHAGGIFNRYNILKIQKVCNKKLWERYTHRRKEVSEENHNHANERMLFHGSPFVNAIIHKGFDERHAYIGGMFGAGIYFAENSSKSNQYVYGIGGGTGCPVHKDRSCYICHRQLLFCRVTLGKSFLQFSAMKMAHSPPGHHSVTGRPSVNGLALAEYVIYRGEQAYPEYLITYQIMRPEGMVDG
Briefly: TNKS2 Assay B (auto-parsylation, [3H]-NAD+ SPA). The assay is classed as biochemical. The note with it: 6 nM TNKS2, auto-parsylation, over night at room temperature.

Assay [1] deals with HEK293 cells cotransfected with the FOP control vector. The assay is described as follows: HEK293 FOP assay (control reporter with non-functional TCF elements). It is filed as cell-based. The note with it: Homo sapiens, 16 hours. The procedure, abridged: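 Stable HEK293 line carrying FOP control reporter (randomized non-functional TCF sites, with pcDNA3), Geneticin-selected, plated 24 h before assay. Stimulated with recombinant human Wnt-3a (2500-5 ng/ml) and compounds 50 μM–15 nM (3.16-fold steps) in CAFTY buffer pH 7.4 with 2 mM Ca2+, 0.01% BSA, run parallel to TOP line.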

Assay [2] concerns wildtype Wnt signaling cascade. The assay is described as follows: HEK293 TOP assay (Super TopFlash luciferase reporter, Wnt-3a stimulated). The assay is classed as cell-based. The note with it: Homo sapiens, HEK293, 16 h, HEK293 TOP reporter cells, Wnt3a at EC50, 16 hours. The procedure, abridged:
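HEK293 cells stably carrying Super TopFlash (TOP) run in parallel with FOP cells, 10000/well plated 24 h ahead, stimulated with recombinant human Wnt-3a. Compounds tested 50 μM to 15 nM in 3.16-fold steps in CAFTY buffer pH 7.4 with 2 mM Ca^2+ and 0.01% BSA; luciferase read-out.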

For `NC(=O)c1nc[nH]c1C(=O)N[C@H]1CC[C@@]2(CCCN(c3cc(F)c(F)cc3Cl)C2=O)CC1` [Example 320, N^5-[(trans)-2-(2-chloro-4,5-difluorophenyl)-1-oxo-2-azaspiro[5.5]undec-9-yl]-1H-imidazole-4,5-dicarboxamide], the IC50 is 9.4 nM against TNKS2, ≥ 50000 nM in assay [1] and 27 nM in assay [2].

For `CC(C)NC(=O)c1nc[nH]c1C(=O)N[C@H]1CC[C@@]2(CCCN(c3cc(F)c(F)cc3Cl)C2=O)CC1` [Example 321, N^5-[(trans)-2-(2-chloro-4,5-difluorophenyl)-1-oxo-2-azaspiro[5.5]undec-9-yl]-N^4-(propan-2-yl)-1H-imidazole-4,5-dicarboxamide], the figures for the IC50 (against TNKS2; in assay [1]; in assay [2]) were 52 nM, 24000 nM and 6 nM, respectively.

Consider `O=C(N[C@H]1CC[C@@]2(CCCN(c3cc(F)c(F)cc3Cl)C2=O)CC1)c1[nH]cnc1C(=O)N1CC(OC(F)F)C1` [Example 322, N-[(trans)-2-(2-chloro-4,5-difluorophenyl)-1-oxo-2-azaspiro[5.5]undec-9-yl]-4-{[3-(difluoromethoxy)azetidin-1-yl]carbonyl}-1H-imidazole-5-carboxamide], for which the IC50 was 12 nM against TNKS2, 21000 nM in assay [1] and 1.4 nM in assay [2].

With `O=C(N[C@H]1CC[C@@]2(CCCN(c3cc(F)c(F)cc3Cl)C2=O)CC1)c1[nH]cnc1C(=O)N1CCOCC1` [Example 323, N-[(trans)-2-(2-chloro-4,5-difluorophenyl)-1-oxo-2-azaspiro[5.5]undec-9-yl]-4-(morpholin-4-ylcarbonyl)-1H-imidazole-5-carboxamide], the figures for the IC50 (against TNKS2; in assay [1]; in assay [2]) were 930 nM, ≥ 50000 nM and 97 nM, respectively.

On to `O=C(NC1CC1)c1nc[nH]c1C(=O)N[C@H]1CC[C@@]2(CCCN(c3cc(F)c(F)cc3Cl)C2=O)CC1` [Example 324, N^5-[(trans)-2-(2-chloro-4,5-difluorophenyl)-1-oxo-2-azaspiro[5.5]undec-9-yl]-N^4-cyclopropyl-1H-imidazole-4,5-dicarboxamide], for which the IC50 at TNKS2 is 19 nM; in assay [1], ≥ 500 nM; in assay [2] it was 3 nM.

In the case of `O=C(N[C@H]1CC[C@@]2(CCCN(c3ccc(F)cc3Cl)C2=O)CC1)c1cnn2cccnc12` [Example 325, N-[(trans)-2-(2-chloro-4-fluorophenyl)-1-oxo-2-azaspiro[5.5]undec-9-yl]pyrazolo[1,5-a]pyrimidine-3-carboxamide], the figures for the IC50 (at TNKS2; in assay [1]; in assay [2]) were 100 nM, ≥ 50000 nM and 23 nM, respectively.

As for `O=C(N[C@H]1CC[C@@]2(CCCN(c3ccc(F)cc3Cl)C2=O)CC1)c1cnc2cccnn12` [Example 326, N-[(trans)-2-(2-chloro-4-fluorophenyl)-1-oxo-2-azaspiro[5.5]undec-9-yl]imidazo[1,2-b]pyridazine-3-carboxamide], the figures for the IC50 (against TNKS2; in assay [1]; in assay [2]) were 180 nM, ≥ 50000 nM and 60 nM, respectively.

For `O=C(N[C@H]1CC[C@@]2(CCCN(c3ccc(F)cc3Cl)C2=O)CC1)c1[nH]cnc1C(=O)N1CC(F)C1` [Example 327, N-[(trans)-2-(2-chloro-4-fluorophenyl)-1-oxo-2-azaspiro[5.5]undec-9-yl]-4-[(3-fluoroazetidin-1-yl)carbonyl]-1H-imidazole-5-carboxamide], the concentration for half-maximal inhibition (IC50) turned out to be 29 nM against TNKS2, 31000 nM in assay [1] and 7 nM in assay [2].

Turning to `O=C(NC1CC1)c1nc[nH]c1C(=O)N[C@H]1CC[C@@]2(CCCN(c3ccc(F)cc3Cl)C2=O)CC1` [Example 328, N^5-[(trans)-2-(2-chloro-4-fluorophenyl)-1-oxo-2-azaspiro[5.5]undec-9-yl]-N^4-cyclopropyl-1H-imidazole-4,5-dicarboxamide], the values for the IC50 (on TNKS2; in assay [1]; in assay [2]) were 75 nM, 27000 nM and 50 nM, respectively.

`CC(C)NC(=O)c1nc[nH]c1C(=O)N[C@H]1CC[C@@]2(CCCN(c3ccc(F)cc3Cl)C2=O)CC1` [Example 329, N^5-[(trans)-2-(2-chloro-4-fluorophenyl)-1-oxo-2-azaspiro[5.5]undec-9-yl]-N^4-(propan-2-yl)-1H-imidazole-4,5-dicarboxamide]: the IC50 against TNKS2 was 160 nM; in assay [1], 40000 nM; in assay [2], 260 nM.

Take `O=C(N[C@H]1CC[C@@]2(CCN(c3ccc(F)cc3Cl)C2=O)CC1)c1cnn2ccc(C(F)F)nc12` [Example 330, N-[(trans)-2-(2-chloro-4-fluorophenyl)-1-oxo-2-azaspiro[4.5]dec-8-yl]-5-(difluoromethyl)pyrazolo[1,5-a]pyrimidine-3-carboxamide]: the IC50 against TNKS2 was found to be 11 nM; in assay [1], 30000 nM; in assay [2], 5 nM.

Take `O=C(N[C@H]1CC[C@@]2(CCN(c3ccc(F)cc3Cl)C2=O)CC1)c1cnn2c(C(F)F)cc(C(F)F)nc12` [Example 331, N-[(trans)-2-(2-chloro-4-fluorophenyl)-1-oxo-2-azaspiro[4.5]dec-8-yl]-5,7-bis(difluoromethyl)pyrazolo[1,5-a]pyrimidine-3-carboxamide]: the IC50 against TNKS2 was 76 nM; in assay [1] it was 30000 nM; in assay [2], 6.5 nM.

In the case of `O=C(N[C@H]1CC[C@]2(CCN(c3ccc(F)cc3Cl)C2=O)CC1)c1c[nH]c2cccnc12` [Example 332, N-[(cis)-2-(2-chloro-4-fluorophenyl)-1-oxo-2-azaspiro[4.5]dec-8-yl]-1H-pyrrolo[3,2-b]pyridine-3-carboxamide], the results for the 50% inhibitory concentration (IC50) (at TNKS2; in assay [1]; in assay [2]) were 4700 nM, 35000 nM and 570 nM, respectively.

For `Cc1cc(C(F)F)n2ncc(C(=O)N[C@H]3CC[C@]4(CCN(c5ccc(F)cc5Cl)C4=O)CC3)c2n1` [Example 333, N-[(cis)-2-(2-chloro-4-fluorophenyl)-1-oxo-2-azaspiro[4.5]dec-8-yl]-7-(difluoromethyl)-5-methylpyrazolo[1,5-a]pyrimidine-3-carboxamide], the half-maximal inhibitory concentration (IC50) against TNKS2 was 670 nM; in assay [1] it was 30000 nM; in assay [2], 55 nM.

Consider `Cc1ccn2ncc(C(=O)N[C@H]3CC[C@]4(CCN(c5ccc(F)cc5Cl)C4=O)CC3)c2n1` [Example 335, N-[(cis)-2-(2-chloro-4-fluorophenyl)-1-oxo-2-azaspiro[4.5]dec-8-yl]-5-methylpyrazolo[1,5-a]pyrimidine-3-carboxamide], for which the IC50 on TNKS2 was > 10000 nM; in assay [1], ≥ 50000 nM; in assay [2], 650 nM.

Turning to `Cc1ccnc2c(C(=O)N[C@H]3CC[C@]4(CCN(c5ccc(F)cc5Cl)C4=O)CC3)cnn12` [Example 336, N-[(cis)-2-(2-chloro-4-fluorophenyl)-1-oxo-2-azaspiro[4.5]dec-8-yl]-7-methylpyrazolo[1,5-a]pyrimidine-3-carboxamide], the IC50 at TNKS2 is 870 nM; in assay [1], ≥ 50000 nM; in assay [2], 54 nM.

`COCc1cc(C)n2ncc(C(=O)N[C@H]3CC[C@]4(CCN(c5ccc(F)cc5Cl)C4=O)CC3)c2n1` [Example 337, N-[(cis)-2-(2-chloro-4-fluorophenyl)-1-oxo-2-azaspiro[4.5]dec-8-yl]-5-(methoxymethyl)-7-methylpyrazolo[1,5-a]pyrimidine-3-carboxamide]: the 50% inhibitory concentration (IC50) is > 10000 nM on TNKS2, ≥ 50000 nM in assay [1] and 1100 nM in assay [2].

Consider `O=C(NC1CC1)c1nc[nH]c1C(=O)N[C@H]1CC[C@]2(CCN(c3ccc(F)cc3Cl)C2=O)CC1` [Example 338, N^5-[(cis)-2-(2-chloro-4-fluorophenyl)-1-oxo-2-azaspiro[4.5]dec-8-yl]-N^4-cyclopropyl-1H-imidazole-4,5-dicarboxamide], for which the figures for the half-inhibitory concentration (IC50) (on TNKS2; in assay [1]; in assay [2]) were > 10000 nM, 18000 nM and 1900 nM, respectively.
